Data taken from the NIST ThermoML archive (doi:10.1016/j.jct.2018.01.005).
± gives the expanded uncertainty stated by the source.

Assays:
[1] = 101.33 kPa, Liquid, Vibrating tube method
[2] = excess molar enthalpy (molar enthalpy of mixing); xn = mol fraction of the nth substance listed; conditions: 100 kPa, Liquid, Flow calorimetry

CCCCO [butan-1-ol]
[1]
Conditions	mass density [kg/m3]
283.15 K	817.11 ± 0.41
298.15 K	805.72 ± 0.41
313.15 K	794.4 ± 0.41
328.15 K	782.11 ± 0.41

CC1(C)C(=O)[C@]2(C)CC[C@H]1C2 [(-)-fenchone] + CCCCCO
excess molar enthalpy [kcal/mol], [2]
Conditions	283.15 K	298.15 K	313.15 K	328.15 K
x1 = 0.049	0.0507 ± 0.00191	0.0559 ± 0.00215	0.0588 ± 0.00215	0.0607 ± 0.00215
x1 = 0.099	0.0966 ± 0.00311	0.108 ± 0.00359	0.115 ± 0.00382	0.118 ± 0.00382
x1 = 0.199	0.179 ± 0.0055	0.197 ± 0.00621	0.207 ± 0.00645	0.212 ± 0.00669
x1 = 0.3	0.231 ± 0.00717	0.259 ± 0.00813	0.276 ± 0.0086	0.283 ± 0.00884
x1 = 0.397	0.264 ± 0.00813	0.299 ± 0.00932	0.321 ± 0.01	0.331 ± 0.0103
x1 = 0.498	0.276 ± 0.0086	0.314 ± 0.0098	0.337 ± 0.0105	0.349 ± 0.0108
x1 = 0.596	0.269 ± 0.00837	0.306 ± 0.00956	0.329 ± 0.0103	0.341 ± 0.0105
x1 = 0.702	0.241 ± 0.00741	0.274 ± 0.0086	0.294 ± 0.00908	0.304 ± 0.00932
x1 = 0.803	0.192 ± 0.00598	0.216 ± 0.00669	0.229 ± 0.00717	0.236 ± 0.00741
x1 = 0.898	0.109 ± 0.00359	0.125 ± 0.00406	0.135 ± 0.0043	0.139 ± 0.00454
x1 = 0.949	0.0574 ± 0.00215	0.0645 ± 0.00239	0.0693 ± 0.00263	0.0719 ± 0.00263

CCCCCO [pentan-1-ol]
[1]
Conditions	mass density [kg/m3]
283.15 K	821.79 ± 0.42
298.15 K	810.9 ± 0.42
313.15 K	799.8 ± 0.42
328.15 K	788.82 ± 0.42

CC1(C)C(=O)[C@]2(C)CC[C@H]1C2 [(-)-fenchone] + CCCCO
excess molar enthalpy [kcal/mol], [2]
Conditions	283.15 K	298.15 K	313.15 K	328.15 K
x1 = 0.05	0.0509 ± 0.00191	0.0569 ± 0.00215	0.0609 ± 0.00215	0.0636 ± 0.00239
x1 = 0.1	0.0966 ± 0.00311	0.109 ± 0.00359	0.117 ± 0.00382	0.122 ± 0.00382
x1 = 0.203	0.175 ± 0.0055	0.194 ± 0.00598	0.208 ± 0.00645	0.217 ± 0.00669
x1 = 0.3	0.222 ± 0.00693	0.25 ± 0.00765	0.269 ± 0.00837	0.282 ± 0.00884
x1 = 0.396	0.255 ± 0.00789	0.289 ± 0.00884	0.313 ± 0.0098	0.328 ± 0.0103
x1 = 0.499	0.267 ± 0.00837	0.305 ± 0.00956	0.331 ± 0.0103	0.348 ± 0.0108
x1 = 0.603	0.261 ± 0.00813	0.299 ± 0.00932	0.325 ± 0.01	0.341 ± 0.0105
x1 = 0.692	0.237 ± 0.00741	0.27 ± 0.00837	0.292 ± 0.00908	0.305 ± 0.00956
x1 = 0.805	0.184 ± 0.00574	0.208 ± 0.00645	0.222 ± 0.00693	0.23 ± 0.00717
x1 = 0.898	0.105 ± 0.00335	0.122 ± 0.00382	0.132 ± 0.0043	0.137 ± 0.0043
x1 = 0.95	0.0538 ± 0.00191	0.0617 ± 0.00239	0.0664 ± 0.00239	0.0686 ± 0.00263
